The source of these data is patent publication US9751847B2, “Methods and compositions related to neuroactive thiazoline compounds” (University of Utah Research Foundation, priority 2010, dated 2017).

The inhibition is the drop in the measured response relative to a control, in per cent. The term Ki denotes the equilibrium dissociation constant of an inhibitor or competing ligand from its target.

Entries after “also recorded” stand apart in the source; their conditions may differ. Like-named read-outs stand apart in the source and are kept apart here.

One assay concerns the target 5HT-2B receptor (Homo sapiens, UniProt P41595). As to the kind of experiment: PDSP radioligand displacement receptor assay, 5HT2B. The class given is binding. The following applies: for inhibition at 10 µM: primary assay, 10 μM compound; for Ki: secondary binding assay. As for the experimental part:
(§1) Receptor affinity assays were carried out according to methods as described at http://pdsp.med.unc.edu/ (accessed on Oct. 13, 2010).
(§2) Initial hits were obtained in radioligand displacement assays. […] Representative activity is highlighted in the table below showing in radioligand displacement activity at 10 μM of the in dicated compound. Ki was determined as indicated.
(Displacement assays read how much labelled ligand stays bound in the presence of the test substance.)

The target in the next assay is histamine H1 receptor (Homo sapiens, UniProt P35367). As to the kind of experiment: PDSP radioligand displacement receptor assay, H1. The class given is binding. The following applies: for inhibition at 10 µM: radioligand displacement, primary assay, 10 μM compound; for Ki: secondary binding assay, test compound 1 to 10,000 nM. As for the experimental part:
as §1, §2

In a further assay the test system is Ca2+ Channel. As to the kind of experiment: PDSP radioligand displacement receptor assay, Ca2+ channel. The class given is binding. To be noted: for inhibition (10 μM) Ca2+ Channel: radioligand displacement, primary assay, 10 μM compound; for Ki: secondary binding assay, test compound 1 to 10,000 nM. The protocol: as §1, §2
In assay [1] the test system is dorsal root ganglia (DRG) cells. As to the kind of experiment: Dorsal root ganglion (DRG) assay, Fura-2 intracellular calcium with 25 mM KCl. It counts as cell-based, mice. The following applies: pure compound 20 μg/mL, co-applied with 25 mM KCl, mouse DRG cells. The protocol: For details of the isolation and culture of dorsal root ganglion neurons see Light et al. Briefly, dorsal root ganglia (DRG) cells from cervical and lumbar regions were obtained from mice and used in an assay with bacterial culture extracts and pure compounds. DRG cells were suspended in medium with additives and loaded with Fura-2 AM (Molecular Probes), a fluorescent dye used to measure intracellular calcium levels. Experiments were performed at room temperature (20 to 25° C.) in a 24-well plate format using fluorescence microscopy. Individual cells were treated as single samples, so that the individual responses of diverse neuron subtypes from the DRG could be examined. After baseline measurements, the cells were treated with 25 mM KCl solution and then washed. After return to baseline, bacterial extracts, fractions, or pure compounds were applied. This solution was then later replaced with 25 mM KCl solution. The use of KCl permitted observation of direct, modulatory, as well as inhibitory and excitatory effects of the samples assayed.
Representative data for assay results obtained with a sample of crude extract (100 μg/mL; FIG. 33), as well as compounds 1, 2, and 8 (20 μg/mL; respectively, […]). The y-axis indicates the ratio between 340 nm and 380 nm fluorescence. A higher value indicates more Ca^2+ in the cell. The x-axis indicates time. Each line indicates an individual DRG cell followed over the experimental time course. In each experiment, KCl is applied either once or twice, the compounds or extracts are incubated with cells, then the compound is co-applied with KCl.
On the technique in general: A change in cytosolic calcium serves as a functional read-out for many receptors and channels.

The target of the next assay is kappa opioid receptor (Homo sapiens, UniProt P41145). Kind of assay: PDSP radioligand displacement receptor assay, KOR. The following applies: for inhibition at 10 µM: radioligand displacement, primary assay, 10 μM compound; for Ki: secondary binding assay, test compound 1 to 10,000 nM. It counts as binding. As for the experimental part: as §1, §2
The next assay deals with DAT (Homo sapiens, UniProt Q01959). Kind of assay: PDSP radioligand displacement receptor assay, DAT. To be noted: for inhibition at 10 µM: radioligand displacement, primary assay, 10 μM compound; for Ki: secondary binding assay, test compound 1 to 10,000 nM. The class given is binding. The protocol:
as §1, §2

Assay [2] relates to other serotonin receptors. As to the kind of experiment: PDSP primary assay, other serotonin receptors. The class given is binding. The following applies: 5HT-2B versus other serotonin receptors. As for the experimental part: as §1, §2
Where [3] appears, read: test compound 1 to 10,000 nM, read-out: Ki (nM) 5HT2B.

Chain of kappa opioid receptor (P41145 whole entry): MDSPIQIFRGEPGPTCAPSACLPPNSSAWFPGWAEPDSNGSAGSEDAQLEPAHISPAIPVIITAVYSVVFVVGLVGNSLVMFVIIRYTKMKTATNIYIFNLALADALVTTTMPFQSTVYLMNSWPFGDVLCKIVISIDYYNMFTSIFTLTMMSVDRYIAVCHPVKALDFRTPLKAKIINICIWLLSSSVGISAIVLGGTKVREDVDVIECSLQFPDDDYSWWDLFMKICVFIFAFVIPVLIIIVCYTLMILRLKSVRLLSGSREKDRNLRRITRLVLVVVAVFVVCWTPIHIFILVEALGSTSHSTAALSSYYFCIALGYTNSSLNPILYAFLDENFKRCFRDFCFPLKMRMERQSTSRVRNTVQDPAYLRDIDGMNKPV
Chain of DAT (Q01959 whole entry, species assumed): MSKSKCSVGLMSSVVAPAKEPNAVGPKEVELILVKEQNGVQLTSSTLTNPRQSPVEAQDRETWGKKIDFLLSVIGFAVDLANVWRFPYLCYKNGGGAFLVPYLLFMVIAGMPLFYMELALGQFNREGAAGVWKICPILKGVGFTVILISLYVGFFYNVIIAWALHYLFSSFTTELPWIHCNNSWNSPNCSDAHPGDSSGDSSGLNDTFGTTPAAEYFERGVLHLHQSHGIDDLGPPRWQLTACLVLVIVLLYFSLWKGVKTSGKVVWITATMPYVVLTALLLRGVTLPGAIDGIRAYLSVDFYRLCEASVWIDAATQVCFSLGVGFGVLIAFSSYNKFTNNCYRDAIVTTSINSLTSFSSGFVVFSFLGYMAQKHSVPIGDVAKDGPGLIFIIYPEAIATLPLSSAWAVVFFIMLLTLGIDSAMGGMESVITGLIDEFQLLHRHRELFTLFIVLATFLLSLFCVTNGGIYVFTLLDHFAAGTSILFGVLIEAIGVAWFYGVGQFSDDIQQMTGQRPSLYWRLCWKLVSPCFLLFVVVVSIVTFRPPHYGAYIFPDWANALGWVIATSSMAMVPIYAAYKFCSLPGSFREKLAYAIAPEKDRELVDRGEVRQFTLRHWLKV
Chain of 5HT-2B receptor (P41595 whole entry): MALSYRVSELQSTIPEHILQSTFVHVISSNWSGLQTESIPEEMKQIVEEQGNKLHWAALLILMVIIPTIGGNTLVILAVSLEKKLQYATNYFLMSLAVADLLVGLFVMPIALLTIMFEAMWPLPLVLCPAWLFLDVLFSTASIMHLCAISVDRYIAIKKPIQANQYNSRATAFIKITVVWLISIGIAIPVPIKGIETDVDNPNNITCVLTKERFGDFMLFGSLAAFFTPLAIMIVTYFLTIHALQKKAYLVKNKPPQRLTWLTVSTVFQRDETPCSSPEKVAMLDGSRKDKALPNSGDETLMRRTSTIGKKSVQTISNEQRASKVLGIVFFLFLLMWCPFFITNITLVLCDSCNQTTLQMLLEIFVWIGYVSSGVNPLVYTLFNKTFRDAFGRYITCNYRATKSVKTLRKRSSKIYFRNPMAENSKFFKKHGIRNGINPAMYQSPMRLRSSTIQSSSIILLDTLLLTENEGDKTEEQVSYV
Chain of histamine H1 receptor (P35367 whole entry, species assumed): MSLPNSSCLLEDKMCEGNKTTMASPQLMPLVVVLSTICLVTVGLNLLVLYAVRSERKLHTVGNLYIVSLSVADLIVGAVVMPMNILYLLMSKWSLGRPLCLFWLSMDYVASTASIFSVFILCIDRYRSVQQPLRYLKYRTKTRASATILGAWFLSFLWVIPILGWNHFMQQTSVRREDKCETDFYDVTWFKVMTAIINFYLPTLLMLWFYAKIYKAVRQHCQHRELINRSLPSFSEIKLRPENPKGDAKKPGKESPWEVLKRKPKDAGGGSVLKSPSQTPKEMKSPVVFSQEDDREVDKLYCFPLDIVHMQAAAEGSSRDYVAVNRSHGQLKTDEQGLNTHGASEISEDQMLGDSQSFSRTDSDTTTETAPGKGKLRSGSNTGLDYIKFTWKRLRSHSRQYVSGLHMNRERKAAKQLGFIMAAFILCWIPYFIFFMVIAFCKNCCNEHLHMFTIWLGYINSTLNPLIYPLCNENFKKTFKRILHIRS

For the molecule `OC[C@@H]1CSC(c2ccccc2O)=N1` [Compound 1, (R)-2-(4-(hydroxymethyl)-4,5-dihydrothiazol-2-yl)phenol], the inhibition at 10 µM at 5HT-2B receptor (radioligand displacement) is 79.2%; at histamine H1 receptor, 39%; at kappa opioid receptor, 57.2%; on DAT it was -1.5%. Besides, the Ki was 1360 nM on 5HT-2B receptor (setting [3]) and greater than 10000 nM at kappa opioid receptor. In the assay on Ca2+ Channel, the “inhibition (10 μM) Ca2+ Channel” value was −0.7%. In addition, in assay [1], the “response in DRG assay (Ca2+ influx)” value is given as “excitatory response; also recorded: increased Ca^2+ influx”.
In the case of `C[C@@H]1SC(c2ccccc2O)=N[C@@H]1CO` [Compound 2, 2-((4R,5S)-4-(hydroxymethyl)-5-methyl-4,5-dihydrothiazol-2-yl)phenol], the inhibition at 10 µM at 5HT-2B receptor (radioligand displacement) stood at 89.7%; on histamine H1 receptor, 45.8%; on kappa opioid receptor it was 60.8%; at DAT, 6%. Besides, the results for the Ki at 5HT-2B receptor (setting [3]), at Ca2+ Channel and at kappa opioid receptor were 505 nM, 6600 nM and greater than 10000 nM, respectively. The “selectivity for the 5HT-2B receptor versus the other serotonin receptors” value in assay [2] is listed as no less than 20 fold. Further, in assay [1], the “response in DRG assay (Ca2+ influx)” value is listed as “inhibitory response; also recorded: decreased Ca^2+ influx”.
Turning to `Cc1sc(-c2ccccc2O)nc1C=O` [Compound 5, 2-(2-hydroxyphenyl)-5-methylthiazole-4-carbaldehyde], the inhibition at 10 µM on 5HT-2B receptor (radioligand displacement) amounted to 77%; on histamine H1 receptor it was 42.5%; at kappa opioid receptor, 37.1%; at DAT, 88.3%. Also, the Ki at 5HT-2B receptor (setting [3]) was determined as 1540 nM; on DAT it was 5180 nM. Also, in the assay on Ca2+ Channel, the “inhibition (10 μM) Ca2+ Channel” value is recorded as −18.9%.
As for `NC(=O)c1csc(-c2ccccc2O)n1` [Compound 7, 2-(2-hydroxyphenyl)thiazole-4-carboxamide], the inhibition at 10 µM stood at 84.9% at 5HT-2B receptor (radioligand displacement), 88% on histamine H1 receptor, 31.8% on kappa opioid receptor and 2.4% on DAT. The Ki was determined as 1030 ± 76 nM at 5HT-2B receptor (radioligand displacement, read-out: Ki (nM) vs 5-HT2B) and 517 ± 28 nM at histamine H1 receptor. Besides, the “inhibition (10 μM) Ca2+ Channel” value in the assay on Ca2+ Channel stood at 29.6%.
As for `NC(=O)C1CSC(c2ccccc2O)=N1` (stereo not drawn) [Compound 8, 2-(2-hydroxyphenyl)-4,5-dihydrothiazole-4-carboxamide], the inhibition at 10 µM is 65.8% at 5HT-2B receptor (radioligand displacement), 71.6% at histamine H1 receptor, 50.4% at kappa opioid receptor and 13.8% on DAT. Further, the figures for the Ki on 5HT-2B receptor (setting [3]), on histamine H1 receptor and at kappa opioid receptor were 1260 nM, 678 ± 46 nM and 3710 nM, respectively. Moreover, the “inhibition (10 μM) Ca2+ Channel” value in the assay with Ca2+ Channel is listed as −3.4%. Besides, the “response in DRG assay (Ca2+ influx)” value in assay [1] was “excitatory response; also recorded: increased Ca^2+ influx”.
Turning to `C[C@@H]1SC(c2ccccc2O)=N[C@H]1[C@@H]1SC[C@](C)(C(=O)O)N1C` [Compound 9, (2S,4S)-2-((4R,5S)-2-(2-hydroxyphenyl)-5-methyl-4,5-dihydrothiazol-4-yl)-3,4-dimethylthiazolidine-4-carboxylic acid], the inhibition at 10 µM worked out at 68% at 5HT-2B receptor (radioligand displacement), 16.3% on histamine H1 receptor, 41.4% on kappa opioid receptor and 83.8% on DAT. Further, the Ki at 5HT-2B receptor (setting [3]) was 3920 nM; on DAT, greater than 10000 nM. In the assay with Ca2+ Channel, the “inhibition (10 μM) Ca2+ Channel” value is 0.1%.
Regarding `C[C@@H]1SC(c2ccccc2O)=N[C@H]1[C@H]1SC[C@](C)(C(=O)O)N1C` [Compound 10, (2R,4S)-2-((4R,5S)-2-(2-hydroxyphenyl)-5-methyl-4,5-dihydrothiazol-4-yl)-3,4-dimethylthiazolidine-4-carboxylic acid], the inhibition at 10 µM at 5HT-2B receptor (radioligand displacement) is 40.3%; on histamine H1 receptor, -3%; at kappa opioid receptor, 31.9%; at DAT it was -0.3%. For the same molecule, the figures for the Ki on 5HT-2B receptor (setting [3]) and on Ca2+ Channel were 4700 nM and 9750 nM, respectively. Further, in the assay with Ca2+ Channel, the “inhibition (10 μM) Ca2+ Channel” value is reported as 110.4%.
